# Experimental data published in US20090275667A1, “USE OF ALLICIN AS PRESERVATIVE, AS DISINFECTANT, AS ANTIMICROBIAL OR AS BIOCIDAL AGENT” (Stone Island Holdings Ltd, priority 2003, published 2009).
# Values joined by “and” are separate entries in the source; they are usually repeats but may differ in a detail not shown here. Identical values can stand only once.
# Tests used:
# [1] = tested on: Ascosphaera apis; assay: Disk diffusion test (Kirby-Bauer), zone of inhibition; format: cell-based; details: 6 mm paper disc containing 250 μg of allicin
# Experimental: (§1) Allicin (Allisure™ Liquid) was tested against bacterial and fungal pathogens using a standard disk diffusion method (per Norrell & Messley). The aliquots of bacterial or fungal spores (100 μl of approximately 10^8-10^9 spores/ml) were plated on Mueller-Hinton agar medium, 4.0 mm depth. The 6 mm paper discs containing 250 μg of allicin or 5 μg of tylosin (positive control) were placed in the center of each plate. Plates were incubated at 33° C. and 6% CO2 and a zone of inhibition was measured 24 h, 48 h or 76 h post inoculation depending on the microbial species. All experiments were replicated at least three times.
# [2] = tested on: Ascosphaera aggregata; assay: as above; format: cell-based; details: 6 mm paper disc containing 250 μg of allicin
# Experimental: as §1
# [3] = tested on: Paenibacillus larvae subsp. larvae; assay: as above; format: cell-based; details: 6 mm paper disc containing 250 μg of allicin
# Experimental: as §1
# [4] = tested on: Paenibacillus larvae subsp. pulvifaciens; assay: as above; format: cell-based; details: 6 mm paper disc containing 250 μg of allicin
# Experimental: as §1
# [5] = tested on: Salm. Enteriditis; assay: Zones of Inhibition against common chicken bacteria; format: cell-based
# [6] = tested on: methicillin resistant Staphylococcus aureus (MRSA); details: certain species of MRSA; earlier application WO03/024437; cited from earlier work
# [7] = tested on: chickens; assay: In vivo trial of allicin in the drinking water of chickens, two sheds
# Experimental: An in vivo trial has also been conducted in which two adjacent sheds each of 10,000 chickens were compared. Each shed was supplied with 1000 litres of water per day. For 7 days, the water for one shed had 1.5 litres of allicin solution (1000 ppm) added to the water supply, with 1 litre of allicin solution (1000 ppm) being added per day for a further 3 days. In the control shed, no allicin solution was added.
# After just a few days, an improvement in the appearance of the health of the chickens in the allicin-treated shed was noted. For example, the combs of the chickens appeared redder and there was an increase of 2 percent in egg production. The vitality of the chickens improved. In contrast, in the control barn, E. coli infection was observed. Following completion of the trial, the livers of several of the birds were examined.
# [8] = tested on: Escherichia coli (NCTC 8156); assay: Modified Kelsey-Sykes test; format: cell-based; parameters: key: CG = Confluent growth
# From the text: Allicin can be used to displace or supplement existing harmful forms of disinfectant/biocide such as chlorine, sodium hypochlorite, ozone and per-acetic acid all of which can have an adverse effect on the environment. UV radiation is also used for disinfection but power and general running costs are high. Laboratory studies have been conducted on our behalf using allicin on aqueous suspensions of bacterial species commonly used as indicators of the effectiveness of water and wastewater disinfection. To this effect, identified isolates from the faecal coliform and streptococcus groups, namely, Escherichia coli (NCTC 8156) and Enterococcus hirae (University of Brighton isolate) were used in all experiments. An aqueous solution of allicin with a nominal concentration of allicin of 1.8 g per litre ie a 0.18% solution was used.
# Stock suspensions of Escherichia coli (NCTC 8156) and Enterococcus hirae (University of Brighton isolate) were cultivated in Nutrient Broth No. 2 from freeze dried isolates. Prior to each experiment, serial dilutions of the suspensions were enumerated by the spread plate method on Nutrient Agar and subsequent incubation at 37 deg C.
# Initial experimental procedures were based on the methods set out in an established UK protocol (BS 6905: 1987). The Kelsy-Sykes methodology was developed as a guide to the concentrations of disinfectants which may be recommended for use under “dirty” (wastewater/sewage) conditions. It is therefore a suitable means of establishing the effectiveness of a disinfectant against a wastewater containing particulate and dissolved contaminants in addition to micro-organisms.
# Therefore, with regard to wastewater/sewage considerations, the protocol was adapted. Under the revised methodology, a sample was taken from the bacterial suspension/biocide mix after the prescribed contact time and plated out onto solid media so that a colony count could be made (see Tables 1 and 2).
# [9] = allicin conc. 0.9 % (w/v), 10 mins
# [10] = allicin conc. 0.9 % (w/v), 20 mins
# [11] = allicin conc. 0.9 % (w/v), 30 mins
# [12] = allicin conc. 1.08 % (w/v), 10 mins
# [13] = allicin conc. 1.08 % (w/v), 20 mins
# [14] = allicin conc. 1.26 % (w/v), 10 mins
# [15] = allicin conc. 1.26 % (w/v), 20 mins
# [16] = allicin conc. 1.62 % (w/v), 10 mins
# [17] = allicin conc. 1.62 % (w/v), 20 mins
structure (smiles),measurement,setting,value
"C=CCS[S+]([O-])CC=C (stereo not drawn) [allicin, Allicin]",zone of inhibition,[1],31-35 mm
same,zone of inhibition,[2],35-37 mm and 35-38 mm
same,zone of inhibition,[3],45-50 mm
same,zone of inhibition,[4],24-26 mm
same,zone of inhibition,[5]; 166 ppm (1:6 dilution),0 mm
same,zone of inhibition,[5]; 1000 ppm,22 mm
same,susceptibility of MRSA to allicin,[6],exceptionally susceptible
same,increase in egg production,"[7]; allicin solution (1000 ppm) 1.5 litres/day in 1000 litres water for 7 days, then 1 litre/day for 3 days, vs control shed",2%
same,resistance to chicken bloodlice,[7]; allicin-treated shed vs control shed,improved resistance
same,evidence of E. coli infection in livers,"[7]; livers examined after completion of the trial, vs control chickens",did not
same,Numbers of colony forming units killed,[8]; [9],CG
same,Percentage reduction in colony forming units,[8]; [9],CG
same,Numbers of colony forming units killed,[8]; [10],CG
same,Percentage reduction in colony forming units,[8]; [10],CG
same,Numbers of colony forming units killed,[8]; [11],CG
same,Percentage reduction in colony forming units,[8]; [11],CG
same,Numbers of colony forming units killed,[8]; [12],CG
same,Percentage reduction in colony forming units,[8]; [12],CG
same,Numbers of colony forming units killed,[8]; [13],CG
same,Percentage reduction in colony forming units,[8]; [13],CG
same,Percentage reduction in colony forming units,"[8]; allicin conc. 1.08 % (w/v), 30 mins",94%
same,Numbers of colony forming units killed,[8]; [14],CG
same,Percentage reduction in colony forming units,[8]; [14],CG
same,Numbers of colony forming units killed,[8]; [15],CG
same,Percentage reduction in colony forming units,[8]; [15],CG
same,Percentage reduction in colony forming units,"[8]; allicin conc. 1.26 % (w/v), 30 mins",97%
same,Percentage reduction in colony forming units,"[8]; allicin conc. 1.4 % (w/v), 10 mins",CG
same,Percentage reduction in colony forming units,"[8]; allicin conc. 1.4 % (w/v), 20 mins",CG
same,Percentage reduction in colony forming units,"[8]; allicin conc. 1.4 % (w/v), 30 mins",89%
same,Numbers of colony forming units killed,"[8]; allicin conc. 1.44 % (w/v), 10 mins",CG
same,Numbers of colony forming units killed,"[8]; allicin conc. 1.44 % (w/v), 20 mins",CG
same,Numbers of colony forming units killed,[8]; [16],CG
same,Percentage reduction in colony forming units,[8]; [16],CG
same,Numbers of colony forming units killed,[8]; [17],CG
same,Percentage reduction in colony forming units,[8]; [17],CG
same,Percentage reduction in colony forming units,"[8]; allicin conc. 1.62 % (w/v), 30 mins",83%
